Measurements taken from publication PMC10301922, “Anti-Oxidant, Anti-Mutagenic Activity and Safety Evaluation of Antrocin” (Toxics, 2023).

How the values were obtained:
[1] = test system: Sprague Dawley rats; experiment: 28-day oral toxicity test: histopathological examination; conditions: male rats; for Bone marrow, femur: Hypocellularity; Score value / Bone marrow, sternum: Hypocellularity; Score value / Bone, femur: Hypertrophy, epiphysis; Score value / Spleen: Atrophy, red pulp; Score value: grades 1-5
[2] = test system: ICR male mice; experiment: In vivo mammalian erythrocyte micronucleus test

C=C1CC[C@H]2C(C)(C)CCC[C@@]23C(=O)OC[C@@H]13 [Antrocin, (-)-Antrocin]
Lymph node, Mesenteric: histopathological lesions ([1]; 7.5 mg/kg oral 28 d): - | Mammary gland: histopathological lesions ([1]; 7.5 mg/kg oral 28 d): - | Optic nerve: histopathological lesions ([1]; 7.5 mg/kg oral 28 d): - | Pancreas: histopathological lesions ([1]; 7.5 mg/kg oral 28 d): - | Parathyroid gland: histopathological lesions ([1]; 7.5 mg/kg oral 28 d): - | Pituitary: histopathological lesions ([1]; 7.5 mg/kg oral 28 d): - | Salivary gland, Mandibular lobe: histopathological lesions ([1]; 7.5 mg/kg oral 28 d): - | Salivary gland, Sublingual lobe: histopathological lesions ([1]; 7.5 mg/kg oral 28 d): - | Sciatic nerve: histopathological lesions ([1]; 7.5 mg/kg oral 28 d): - | Seminal vesicle: histopathological lesions ([1]; 7.5 mg/kg oral 28 d): - | Skeletal muscle: histopathological lesions ([1]; 7.5 mg/kg oral 28 d): - | Skin: histopathological lesions ([1]; 7.5 mg/kg oral 28 d): - | Spinal cord: histopathological lesions ([1]; 7.5 mg/kg oral 28 d): - | Spleen: Atrophy, red pulp, diffuse, slight to moderate; incidence ([1]; 7.5 mg/kg oral 28 d): 0/5 | Stomach: histopathological lesions ([1]; 7.5 mg/kg oral 28 d): - | Testis: histopathological lesions ([1]; 7.5 mg/kg oral 28 d): - | Thymus: histopathological lesions ([1]; 7.5 mg/kg oral 28 d): - | Thyroid gland: histopathological lesions ([1]; 7.5 mg/kg oral 28 d): - | Tongue: histopathological lesions ([1]; 7.5 mg/kg oral 28 d): - | Trachea: histopathological lesions ([1]; 7.5 mg/kg oral 28 d): - | Urinary bladder: histopathological lesions ([1]; 7.5 mg/kg oral 28 d): - | Bone marrow, femur: Hypocellularity; Score value ([1]; 7.5 mg/kg oral 28 d): 0 | Bone marrow, sternum: Hypocellularity; Score value ([1]; 7.5 mg/kg oral 28 d): 0 | Bone, femur: Hypertrophy, epiphysis; Score value ([1]; 7.5 mg/kg oral 28 d): 0 | Spleen: Atrophy, red pulp; Score value ([1]; 7.5 mg/kg oral 28 d): 0 | Adrenal gland: Congestion, cortex, multifocal, slight; incidence ([1]; 37.5 mg/kg oral 28 d): - | Aorta: histopathological lesions ([1]; 37.5 mg/kg oral 28 d): - | Bone marrow, femur: Hypocellularity, diffuse, slight to moderate/severe; incidence ([1]; 37.5 mg/kg oral 28 d): 0/5 | Bone marrow, sternum: Hypocellularity, diffuse, moderate; incidence ([1]; 37.5 mg/kg oral 28 d): 0/5 | Bone, femur: Hypertrophy, epiphysis, diffuse, slight to moderate/severe; incidence ([1]; 37.5 mg/kg oral 28 d): 0/5 | Coagulative gland: histopathological lesions ([1]; 37.5 mg/kg oral 28 d): - | Epididymis: Granuloma, spermatic, focal, moderate; incidence ([1]; 37.5 mg/kg oral 28 d): - | Esophagus: histopathological lesions ([1]; 37.5 mg/kg oral 28 d): - | Eyes: histopathological lesions ([1]; 37.5 mg/kg oral 28 d): - | Harderian gland: histopathological lesions ([1]; 37.5 mg/kg oral 28 d): - | Heart: Infiltration, mononuclear cell, focal, minimal to slight; incidence ([1]; 37.5 mg/kg oral 28 d): 1/5 | Intestine, large, Caecum: histopathological lesions ([1]; 37.5 mg/kg oral 28 d): - | Intestine, large, Colon: histopathological lesions ([1]; 37.5 mg/kg oral 28 d): - | Intestine, large, Rectum: histopathological lesions ([1]; 37.5 mg/kg oral 28 d): - | Intestine, small, Duodenum: histopathological lesions ([1]; 37.5 mg/kg oral 28 d): - | Intestine, small, Ileum: histopathological lesions ([1]; 37.5 mg/kg oral 28 d): - | Intestine, small, Jejunum: histopathological lesions ([1]; 37.5 mg/kg oral 28 d): - | Kidney: Cast, tubule, focal, minimal; incidence ([1]; 37.5 mg/kg oral 28 d): - | Kidney: Infarct, tubule, focal, slight; incidence ([1]; 37.5 mg/kg oral 28 d): 1/5 | Liver: histopathological lesions ([1]; 37.5 mg/kg oral 28 d): - | Lung: histopathological lesions ([1]; 37.5 mg/kg oral 28 d): - | Lymph node, Cervical: histopathological lesions ([1]; 37.5 mg/kg oral 28 d): - | Lymph node, Mesenteric: histopathological lesions ([1]; 37.5 mg/kg oral 28 d): - | Mammary gland: histopathological lesions ([1]; 37.5 mg/kg oral 28 d): - | Optic nerve: histopathological lesions ([1]; 37.5 mg/kg oral 28 d): - | Pancreas: histopathological lesions ([1]; 37.5 mg/kg oral 28 d): - | Parathyroid gland: histopathological lesions ([1]; 37.5 mg/kg oral 28 d): - | Pituitary: histopathological lesions ([1]; 37.5 mg/kg oral 28 d): - | Prostate gland: Infiltration, mononuclear cell, focal, minimal to slight; incidence ([1]; 37.5 mg/kg oral 28 d): 2/5 | Salivary gland, Mandibular lobe: histopathological lesions ([1]; 37.5 mg/kg oral 28 d): - | Salivary gland, Sublingual lobe: histopathological lesions ([1]; 37.5 mg/kg oral 28 d): - | Sciatic nerve: histopathological lesions ([1]; 37.5 mg/kg oral 28 d): - | Seminal vesicle: histopathological lesions ([1]; 37.5 mg/kg oral 28 d): - | Skeletal muscle: histopathological lesions ([1]; 37.5 mg/kg oral 28 d): - | Skin: histopathological lesions ([1]; 37.5 mg/kg oral 28 d): - | Spinal cord: histopathological lesions ([1]; 37.5 mg/kg oral 28 d): - | Spleen: Atrophy, red pulp, diffuse, slight to moderate; incidence ([1]; 37.5 mg/kg oral 28 d): 0/5 | Stomach: histopathological lesions ([1]; 37.5 mg/kg oral 28 d): - | Testis: histopathological lesions ([1]; 37.5 mg/kg oral 28 d): - | Thymus: histopathological lesions ([1]; 37.5 mg/kg oral 28 d): - | Thyroid gland: histopathological lesions ([1]; 37.5 mg/kg oral 28 d): - | Tongue: histopathological lesions ([1]; 37.5 mg/kg oral 28 d): - | Trachea: histopathological lesions ([1]; 37.5 mg/kg oral 28 d): - | Urinary bladder: histopathological lesions ([1]; 37.5 mg/kg oral 28 d): - | Bone marrow, femur: Hypocellularity; Score value ([1]; 37.5 mg/kg oral 28 d): 0 | Bone marrow, sternum: Hypocellularity; Score value ([1]; 37.5 mg/kg oral 28 d): 0 | Bone, femur: Hypertrophy, epiphysis; Score value ([1]; 37.5 mg/kg oral 28 d): 0 | Spleen: Atrophy, red pulp; Score value ([1]; 37.5 mg/kg oral 28 d): 0 | Mn-RETs/1000RETs (‰) ([2]; 48 h, 100 mg/kg oral gavage): 2.2 ± 0.9 ‰ | RETs/1000RBCs (‰) ([2]; 48 h, 100 mg/kg oral gavage): 20.4 ± 2.4 ‰ | frequencies of micronuclei ([2]; 48 h, 250 mg/kg): 18.8 ± 1.9 ‰ | Mn-RETs/1000RETs (‰) ([2]; 48 h, 250 mg/kg oral gavage): 1.5 ± 0.2 ‰ | RETs/1000RBCs (‰) ([2]; 48 h, 250 mg/kg oral gavage): 18.8 ± 1.9 ‰ | frequencies of micronuclei ([2]; 48 h, […]): 20.8 ± 2.5 ‰ | frequencies of micronuclei ([2]; 72 h, 100 mg/kg): 31.0 ± 6.1 ‰ | Mn-RETs/1000RETs (‰) ([2]; 72 h, 100 mg/kg oral gavage): 3.0 ± 1.0 ‰ | RETs/1000RBCs (‰) ([2]; 72 h, 100 mg/kg oral gavage): 31.0 ± 6.1 ‰ | frequencies of micronuclei ([2]; 72 h, 250 mg/kg): 26.5 ± 4.6 ‰ | Mn-RETs/1000RETs (‰) ([2]; 72 h, 250 mg/kg oral gavage): 2.2 ± 0.5 ‰ | RETs/1000RBCs (‰) ([2]; 72 h, 250 mg/kg oral gavage): 26.5 ± 4.6 ‰ | frequencies of micronuclei ([2]; 72 h, […]): 28.9 ± 5.0 ‰ | frequency of micronuclei versus control ([2]; antrocin-treated groups after 48 or 72 h): no significant changes
